Experimental data taken from patent publication US10966426B2, “Herbicidal compositions comprising phenylpyrimidines” (BASF SE, priority 2016, dated 2021).
Values joined by “and” are separate entries in the source; they are usually repeats but may differ in a detail not shown here. Identical values can stand only once.

Assays:
Format in all cases: in vivo
Brachiaria decumbens = assay: greenhouse pre-emergence treatment, BRADC
In short: (§1)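 Seeds were sown per species in pots of loamy sand with about 3.0% humus, sprayed with the aqueous spray liquor directly after sowing, watered and hooded until rooted, then kept at 10-25° C. or 20-35° C. for 2 to 4 weeks. Damage was scored 0 (none) to 100 (no emergence/complete destruction).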

Lolium multiflorum = assay: greenhouse post-emergence treatment, LOLMU
In short: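 Seeds sown per species in loamy sand substrate (about 3.0% humus); some raised separately and transplanted shortly before treatment. Treatments applied in water post-emergence, plants held at 10-25° C. or 20-35° C. by species, then scored after 2 to 4 weeks, where 100 means total kill and 0 no damage.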

Papaver rhoeas = assay: greenhouse pre-emergence treatment, PAPRH
In short: as §1

Bromus sterilis = assay: greenhouse pre-emergence treatment, BROST
In short: as §1

Polygonum aviculare = assay: greenhouse post-emergence treatment, POLAV
In short: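 Foliar application to greenhouse-grown plants 3–15 cm tall in humus-containing loamy sand; response assessed on a 0–100 scale after 2–4 weeks, with Colby's E=X+Y−(X·Y/100) as the additive expectation.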

Echinocloa crus-galli = assay: greenhouse post-emergence treatment, ECHCG
In short: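 Each species was grown separately and treated once it reached 3 to 15 cm, using actives suspended or emulsified in water. Plants were kept at 10-25° C. or 20-35° C., depending on species. Damage is a 0–100 rating taken during 2 to 4 weeks.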

Digitaria sanguinalis = assay: greenhouse pre-emergence treatment, DIGSA
In short: as §1

[1] = 20 DAT, Ex. 26 solo 62.5 gai/ha
[2] = 20 DAT, Ex. 26 solo 31.25 gai/ha

## COC(=O)c1nc(C2CC2)ncc1-c1ccc(F)cc1Cl [Ex. 26]
Brachiaria decumbens; BRADC, Ex. 26 solo 62.5 gai/ha, 20 DAT
  % activity: 0%
Brachiaria decumbens; BRADC, Ex. 26 solo 125 gai/ha, 20 DAT
  % activity: 20% and 30%
Brachiaria decumbens; BRADC, Ex. 26 solo 250 gai/ha, 20 DAT
  % activity: 65%
Brachiaria decumbens; Ex. 26 solo 62.5 gai/ha, 20 DAT, BRADC
  % activity: 20%
Brachiaria decumbens; Ex. 26 solo 125 gai/ha, 20 DAT, BRADC
  % activity: 0%
Brachiaria decumbens; Ex. 26 solo, 31.25 gai/ha, 20 DAT, BRADC
  % activity: 0%
Brachiaria decumbens; Ex. 26 solo, 62.5 gai/ha, 20 DAT, BRADC
  % activity: 0%
Brachiaria decumbens; Ex. 26 solo, 125 gai/ha, 20 DAT, BRADC
  % activity: 0%
Lolium multiflorum; [1]
  % activity: 0%
Lolium multiflorum; 20 DAT, LOLMU, Ex. 26 solo 125 gai/ha
  % activity: 65% and 55%
Lolium multiflorum; 20 DAT, LOLMU, Ex. 26 solo 250 gai/ha
  % activity: 65%
Lolium multiflorum; 21 DAT, Ex. 26 solo 125 gai/ha
  % activity: 10%
Lolium multiflorum; 21 DAT, Ex. 26 solo 250 gai/ha
  % activity: 55%
Lolium multiflorum; Ex. 26 solo 62.5 gai/ha, 20 DAT, LOLMU (pyridate table)
  % activity: 0%
Lolium multiflorum; Ex. 26 solo 62.5 gai/ha, 20 DAT, LOLMU (pyroxsulam table)
  % activity: 10%
Lolium multiflorum; Ex. 26 solo 62.5 gai/ha, 21 DAT, LOLMU
  % activity: 0%
Lolium multiflorum; Ex. 26 solo 125 gai/ha, 20 DAT, LOLMU (pyridate table)
  % activity: 35%
Lolium multiflorum; Ex. 26 solo 125 gai/ha, 20 DAT, LOLMU (pyroxsulam table)
  % activity: 35%
Lolium multiflorum; Ex. 26 solo 125 gai/ha, 21 DAT, LOLMU
  % activity: 10%
Lolium multiflorum; Ex. 26 solo 250 gai/ha, 20 DAT, LOLMU (pyridate table)
  % activity: 60%
Lolium multiflorum; Ex. 26 solo 250 gai/ha, 20 DAT, LOLMU (pyroxsulam table)
  % activity: 55%
Lolium multiflorum; Ex. 26 solo, 125 gai/ha, 20 DAT, LOLMU
  % activity: 0%
Lolium multiflorum; Ex. 26 solo, 125 gai/ha, 21 DAT, LOLMU
  % activity: 15%
Lolium multiflorum; Ex. 26 solo, 250 gai/ha, 20 DAT, LOLMU
  % activity: 25%
Lolium multiflorum; Ex. 26 solo, 250 gai/ha, 21 DAT, LOLMU
  % activity: 30%
Lolium multiflorum; LOLMU, 21 DAT, solo Ex. 26 62.5 gai/ha
  % activity: 0%
Lolium multiflorum; LOLMU, 21 DAT, solo Ex. 26 125 gai/ha
  % activity: 15%
Lolium multiflorum; LOLMU, 21 DAT, solo Ex. 26 250 gai/ha
  % activity: 30%
Lolium multiflorum; LOLMU, Ex. 26 solo 125 gai/ha, 20 DAT
  % activity: 55% and 35%
Lolium multiflorum; LOLMU, Ex. 26 solo 250 gai/ha, 20 DAT
  % activity: 65%
Papaver rhoeas; [2]
  % activity: 0%
Papaver rhoeas; [1]
  % activity: 0%
Papaver rhoeas; 20 DAT, Ex. 26 solo 125 gai/ha
  % activity: 30%
Papaver rhoeas; 20 DAT, solo Ex. 26 62.5 gai/ha
  % activity: 0%
Papaver rhoeas; Ex. 26 solo 31.25 gai/ha, 20 DAT
  % activity: 0%
Papaver rhoeas; Ex. 26 solo 62.5 gai/ha, 20 DAT
  % activity: 0%
Papaver rhoeas; Ex. 26 solo 125 gai/ha, 20 DAT
  % activity: 0% and 30%
Papaver rhoeas; Ex. 26 solo, 31.25 gai/ha, 20 DAT
  % activity: 0%
Papaver rhoeas; Ex. 26 solo, 62.5 gai/ha, 20 DAT
  % activity: 0%
Papaver rhoeas; Ex. 26 solo, 125 gai/ha, 20 DAT
  % activity: 0%
Bromus sterilis; 20 DAT, BROST, Ex. 26 solo 31.25 gai/ha
  % activity: 10%
Bromus sterilis; 20 DAT, BROST, Ex. 26 solo 125 gai/ha
  % activity: 35%
Bromus sterilis; 21 DAT, BROST, Ex. 26 solo 125 gai/ha
  % activity: 60%
Bromus sterilis; BROST, 20 DAT, solo Ex. 26 125 gai/ha
  % activity: 35%
Bromus sterilis; BROST, 20 DAT, solo Ex. 26 125 gai/ha (Table X68)
  % activity: 30%
Bromus sterilis; BROST, Ex. 26 solo 62.5 gai/ha, 20 DAT
  % activity: 20%
Bromus sterilis; BROST, Ex. 26 solo 125 gai/ha, 20 DAT
  % activity: 30%
Bromus sterilis; Ex. 26 solo 125 gai/ha, 20 DAT, BROST
  % activity: 35%
Bromus sterilis; Ex. 26 solo, 31.25 gai/ha, 20 DAT, BROST
  % activity: 0%
Bromus sterilis; Ex. 26 solo, 62.5 gai/ha, 20 DAT, BROST
  % activity: 20%
Bromus sterilis; Ex. 26 solo, 125 gai/ha, 20 DAT, BROST
  % activity: 30%
Polygonum aviculare; [1]
  % activity: 75%
Polygonum aviculare; 20 DAT, Ex. 26 solo 125 gai/ha
  % activity: 85%
Polygonum aviculare; Ex. 26 solo 62.5 gai/ha, 20 DAT, POLAV
  % activity: 85%
Polygonum aviculare; Ex. 26 solo 125 gai/ha, 20 DAT, POLAV
  % activity: 90%
Polygonum aviculare; Ex. 26 solo, 125 gai/ha, 20 DAT, POLAV
  % activity: 85%
Polygonum aviculare; POLAV, 21 DAT, solo Ex. 26 125 gai/ha
  % activity: 90%
Echinocloa crus-galli; 20 DAT, ECHCG, Ex. 26 solo 125 gai/ha
  % activity: 65%
Echinocloa crus-galli; 20 DAT, ECHCG, Ex. 26 solo 250 gai/ha
  % activity: 70%
Echinocloa crus-galli; 20 DAT, Ex. 26 solo 250 gai/ha
  % activity: 80% and 60%
Echinocloa crus-galli; ECHCG, Ex. 26 solo 62.5 gai/ha, 20 DAT
  % activity: 60%
Echinocloa crus-galli; ECHCG, Ex. 26 solo 125 gai/ha, 20 DAT
  % activity: 65%
Echinocloa crus-galli; ECHCG, Ex. 26 solo 250 gai/ha, 20 DAT
  % activity: 70% and 65%
Echinocloa crus-galli; Ex. 26 solo 62.5 gai/ha, 21 DAT, ECHCG
  % activity: 50%
Echinocloa crus-galli; Ex. 26 solo 250 gai/ha, 20 DAT, ECHCG
  % activity: 65%
Digitaria sanguinalis; [2]
  % activity: 30%
Digitaria sanguinalis; [1]
  % activity: 30%
Digitaria sanguinalis; 20 DAT, Ex. 26 solo 125 gai/ha
  % activity: 60%
Digitaria sanguinalis; DIGSA, 20 DAT, solo Ex. 26 62.5 gai/ha
  % activity: 20%
Digitaria sanguinalis; DIGSA, 20 DAT, solo Ex. 26 125 gai/ha
  % activity: 45%
Digitaria sanguinalis; DIGSA, 20 DAT, solo Ex. 26 125 gai/ha (Table X68)
  % activity: 40%
Digitaria sanguinalis; DIGSA, Ex. 26 solo 31.25 gai/ha, 20 DAT
  % activity: 35%
Digitaria sanguinalis; DIGSA, Ex. 26 solo 62.5 gai/ha, 20 DAT
  % activity: 55%
Digitaria sanguinalis; DIGSA, Ex. 26 solo 125 gai/ha, 20 DAT
  % activity: 60%
Digitaria sanguinalis; Ex. 26 solo 125 gai/ha, 21 DAT, DIGSA
  % activity: 45%
Digitaria sanguinalis; Ex. 26 solo, 31.25 gai/ha, 20 DAT, DIGSA
  % activity: 5%
Digitaria sanguinalis; Ex. 26 solo, 125 gai/ha, 20 DAT, DIGSA
  % activity: 40%
